In ChEMBL document CHEMBL4138170, “Synthesis and biological evaluation of novel alkylated polyamine analogues as potential anticancer agents” (Eur J Med Chem, 2018):
Calls of active or inactive are those of the source. No cut-off for these calls is given here.

Experiments:
HepG2 [1] = experiment: Induction of autophagy in human HepG2 cells assessed as increase in Beclin 1 levels at 2.5 to 7.5 um after 24 to 48 hrs by Western blot analysis; assay type: functional, cell-based
Mus musculus [2] = experiment: Toxicity in Swiss mouse xenografted with mouse H22 cells assessed as effect on lung weight at 0.75 mg/kg/day, iv administered via tail vein for 7 days; assay type: organism-based; conditions: in vivo, 168 h
SMMC-7721 [3] = experiment: Induction of autophagy in human SMMC7721 cells assessed as decrease in p62 levels in presence of antioxidant NAC by Western blot analysis; assay type: functional, cell-based
MDA-MB-231 = experiment: Antiproliferative activity against human MDA-MB-231 cells after 48 hrs by MTT assay; assay type: functional, cell-based; conditions: MDA-MB-231, 48 h
SMMC-7721 [4] = experiment: Induction of autophagy in human SMMC7721 cells assessed as increase in Beclin 1 levels at 2.5 to 7.5 um after 24 to 48 hrs by Western blot analysis; assay type: functional, cell-based
HepG2 [5] = experiment: Antimigratory activity in human HepG2 cells incubated for 24 to 48 hrs in presence of autophagy inhibitor 3-MA by cell wound scratch assay; assay type: functional, cell-based
HepG2 [6] = experiment: Induction of autophagy in human HepG2 cells assessed as downregulation of p62 expression level up to 10 uM after 24 to 48 hrs by Western blot analysis; assay type: functional, cell-based
HepG2 [7] = experiment: Induction of autophagy in human HepG2 cells up to 10 uM after 48 hrs in presence of antioxidant NAC by MDC staining-based flow cytometry; assay type: functional, cell-based
SMMC-7721 [8] = experiment: Induction of autophagy in human SMMC7721 cells assessed as downregulation of p62 expression level up to 10 uM after 24 to 48 hrs by Western blot analysis; assay type: functional, cell-based
HepG2 [9] = experiment: Downregulation of MMP9 protein expression in human HepG2 cells after 24 to 48 hrs by Western blot analysis; assay type: functional, cell-based
SMMC-7721 [10] = experiment: Induction of ROS generation in human SMMC7721 cells at 10 uM after 24 hrs in presence of antioxidant NAC by H2DCFDA staining-based flow cytometry; assay type: functional, cell-based
HepG2 [11] = experiment: Induction of autophagy in human HepG2 cells assessed as increase in LC3-2 levels in presence of antioxidant NAC by Western blot analysis; assay type: functional, cell-based
HepG2 [12] = experiment: Induction of autophagy in human HepG2 cells assessed as decrease in p62 levels in presence of antioxidant NAC by Western blot analysis; assay type: functional, cell-based
SMMC-7721 [13] = experiment: Induction of autophagy in human SMMC7721 cells assessed as increase in LC3-2 levels after 24 to 48 hrs by Western blot analysis; assay type: functional, cell-based
MCF7 = experiment: Antiproliferative activity against human MCF7 cells after 48 hrs by MTT assay; assay type: functional, cell-based; conditions: MCF7, 48 h
HT-29 = experiment: Antiproliferative activity against human HT-29 cells after 48 hrs by MTT assay; assay type: functional, cell-based; conditions: HT-29, 48 h
SMMC-7721 [14] = experiment: Induction of autophagy in human SMMC7721 cells assessed as upregulation of ATG7 expression level up to 10 uM after 24 to 48 hrs by Western blot analysis; assay type: functional, cell-based
Mus musculus [15] = experiment: Toxicity in Swiss mouse xenografted with mouse H22 cells assessed as effect on spleen weight at 0.75 mg/kg/day, iv administered via tail vein for 7 days; assay type: organism-based; conditions: in vivo, 168 h
SMMC-7721 [16] = experiment: Induction of ROS generation in human SMMC7721 cells at 2.5 to 10 uM after 24 hrs by H2DCFDA staining-based flow cytometry; assay type: functional, cell-based
CT26 [17] = experiment: Antimetastatic activity against mouse CT26 cells implanted in BALB/c mouse assessed as reduction in lung metastatic nodules at 0.75 mg/kg, iv administered via tail vein for 9 days; assay type: functional, organism-based
HepG2 [18] = experiment: Induction of autophagy in human HepG2 cells assessed as upregulation of ATG5 expression level up to 10 uM after 24 to 48 hrs by Western blot analysis; assay type: functional, cell-based
HepG2 [19] = experiment: Antiproliferative activity against human HepG2 cells after 48 hrs by MTT assay; assay type: functional, cell-based; conditions: HepG2, 48 h
[20] = Stability of the compound after 48 hrs by 1H NMR spectroscopic method; assay type: physicochemical
HepG2 [21] = experiment: Induction of ROS generation in human HepG2 cells after 24 hrs by H2DCFDA staining-based HCS analysis; assay type: functional, cell-based
HepG2 [22] = experiment: Induction of autophagy in human HepG2 cells assessed as increase in LC3-2 levels after 24 to 48 hrs by Western blot analysis; assay type: functional, cell-based
CT26 [23] = experiment: Antiproliferative activity against mouse CT26 cells after 48 hrs by MTT assay; assay type: functional, cell-based; conditions: CT26, 48 h
HepG2 [24] = experiment: Inhibition of cell migration in human HepG2 cells at 2.5 to 7.5 uM incubated for 24 to 48 hrs by cell wound scratch assay; assay type: functional, cell-based
SMMC-7721 [25] = experiment: Antiproliferative activity against human SMMC7721 cells after 48 hrs in presence of antioxidant NAC by MTT assay; assay type: functional, cell-based
H22 [26] = experiment: Antiproliferative activity against mouse H22 cells after 48 hrs by MTT assay; assay type: functional, cell-based; conditions: H22, 48 h
SMMC-7721 [27] = experiment: Induction of autophagy in human SMMC7721 cells assessed as upregulation of ATG5 expression level up to 10 uM after 24 to 48 hrs by Western blot analysis; assay type: functional, cell-based
HCT-116 = experiment: Antiproliferative activity against human HCT116 cells after 48 hrs by MTT assay; assay type: functional, cell-based; conditions: HCT-116, 48 h
[28] = Stability of the compound after 24 hrs by 1H NMR spectroscopic method; assay type: physicochemical
HepG2 [29] = experiment: Antiproliferative activity against human HepG2 cells after 48 hrs in presence of antioxidant NAC by MTT assay; assay type: functional, cell-based
HepG2 [30] = experiment: Induction of ROS generation in human HepG2 cells at 10 uM after 24 hrs in presence of antioxidant NAC by H2DCFDA staining-based flow cytometry; assay type: functional, cell-based
Mus musculus [31] = experiment: Toxicity in Swiss mouse xenografted with mouse H22 cells assessed as effect on kidney weight at 0.75 mg/kg/day, iv administered via tail vein for 7 days; assay type: organism-based; conditions: in vivo, 168 h
SMMC-7721 [32] = experiment: Downregulation of beta-catenin protein expression in human SMMC7721 cells after 24 to 48 hrs by Western blot analysis; assay type: functional, cell-based
HepG2 [33] = experiment: Induction of ROS generation in human HepG2 cells at 2.5 to 10 uM after 24 hrs by H2DCFDA staining-based flow cytometry; assay type: functional, cell-based
SMMC-7721 [34] = experiment: Induction of autophagy in human SMMC7721 cells up to 10 uM after 48 hrs in presence of antioxidant NAC by MDC staining-based flow cytometry; assay type: functional, cell-based
SMMC-7721 [35] = experiment: Induction of ROS generation in human SMMC7721 cells after 24 hrs by H2DCFDA staining-based HCS analysis; assay type: functional, cell-based
HepG2 [36] = experiment: Induction of autophagy in human HepG2 cells up to 10 uM after 48 hrs by MDC staining-based flow cytometry; assay type: functional, cell-based
SMMC-7721 [37] = experiment: Inhibition of cell migration in human SMMC7721 cells at 2.5 to 7.5 uM incubated for 24 to 48 hrs by cell wound scratch assay; assay type: functional, cell-based
SMMC-7721 [38] = experiment: Antiproliferative activity against human SMMC7721 cells after 48 hrs by MTT assay; assay type: functional, cell-based; conditions: SMMC-7721, 48 h
HepG2 [39] = experiment: Induction of autophagy in human HepG2 cells assessed as upregulation of ATG7 expression level up to 10 uM after 24 to 48 hrs by Western blot analysis; assay type: functional, cell-based
Mus musculus [40] = experiment: Toxicity in Swiss mouse implanted with mouse H22 cells assessed as effect on heart weight at 0.75 mg/kg/day, iv administered via tail vein for 7 days; assay type: organism-based; conditions: in vivo, 168 h
SMMC-7721 [41] = experiment: Induction of autophagy in human SMMC7721 cells up to 10 uM after 48 hrs by MDC staining-based flow cytometry; assay type: functional, cell-based
Mus musculus [42] = experiment: Toxicity in Swiss mouse implanted with mouse H22 cells assessed as effect on quality of life at 0.75 mg/kg/day, iv administered via tail vein for 7 days; assay type: organism-based; conditions: in vivo, 168 h
K562 = experiment: Antiproliferative activity against human K562 cells after 48 hrs by MTT assay; assay type: functional, cell-based; conditions: K562, 48 h
H22 [43] = experiment: Antitumor activity against mouse H22 cells implanted in Swiss mouse assessed as tumor growth inhibition at 0.75 mg/kg/day, iv administered via tail vein for 7 days relative to control; assay type: functional; conditions: 168 h, read-out: TGI
SMMC-7721 [44] = experiment: Induction of autophagy in human SMMC7721 cells assessed as increase in LC3-2 levels in presence of antioxidant NAC by Western blot analysis; assay type: functional, cell-based
Mus musculus [45] = experiment: Toxicity in Swiss mouse implanted with mouse H22 cells assessed as effect on body weight at 0.75 mg/kg/day, iv administered via tail vein for 7 days; assay type: organism-based; conditions: in vivo, 168 h
SMMC-7721 [46] = experiment: Downregulation of MMP9 protein expression in human SMMC7721 cells after 24 to 48 hrs by Western blot analysis; assay type: functional, cell-based
H22 [47] = experiment: Antitumor activity against mouse H22 cells implanted in Swiss mouse assessed as inhibition of lung metastasis at 0.75 mg/kg/day, iv administered via tail vein for 7 days relative to control; assay type: functional; conditions: 168 h
HepG2 [48] = experiment: Downregulation of beta-catenin protein expression in human HepG2 cells after 24 to 48 hrs by Western blot analysis; assay type: functional, cell-based
Mus musculus [49] = experiment: Toxicity in Swiss mouse xenografted with mouse H22 cells assessed as effect on liver weight at 0.75 mg/kg/day, iv administered via tail vein for 7 days; assay type: organism-based; conditions: in vivo, 168 h

SMILES: Cl.Cl.Cl.O=C1c2cccc3cccc(c23)C(=O)N1CCCNCCCNCCCNC1CC1
- Activity (HepG2 [1]): Active
- Activity (Mus musculus [2]): Non-Toxic
- Activity (SMMC-7721 [3]): inactive
- IC50 (MDA-MB-231): 5.14 µM
- Activity (SMMC-7721 [4]): Active
- Activity (HepG2 [5]): Active
- Activity (HepG2 [6]): Active
- Activity (HepG2 [7]): inactive
- Activity (SMMC-7721 [8]): Active
- Activity (HepG2 [9]): Dose-dependent effect
- Activity (SMMC-7721 [10]): inactive
- Activity (HepG2 [11]): inactive
- Activity (HepG2 [12]): inactive
- Activity (SMMC-7721 [13]): Dose-dependent effect
- IC50 (MCF7): 7.47 µM
- IC50 (HT-29): 8.18 µM
- Activity (SMMC-7721 [14]): Active
- Activity (Mus musculus [15]): Non-Toxic
- Activity (SMMC-7721 [16]): Active
- inhibition (CT26 [17]): Active
- Activity (HepG2 [18]): Active
- IC50 (HepG2 [19]): 6.34 µM
- Stability [20]: Stable
- Activity (HepG2 [21]): Dose-dependent effect
- Activity (HepG2 [22]): Dose-dependent effect
- IC50 (CT26 [23]): 9.04 µM
- inhibition (HepG2 [24]): Active
- Activity (SMMC-7721 [25]): inactive
- IC50 (H22 [26]): 7.49 µM
- Activity (SMMC-7721 [27]): Active
- IC50 (HCT-116): 5.28 µM
- Stability [28]: Stable
- Activity (HepG2 [29]): inactive
- Activity (HepG2 [30]): inactive
- Activity (Mus musculus [31]): Non-Toxic
- Activity (SMMC-7721 [32]): Dose-dependent effect
- Activity (HepG2 [33]): Active
- Activity (SMMC-7721 [34]): inactive
- Activity (SMMC-7721 [35]): Dose-dependent effect
- Activity (HepG2 [36]): Active
- inhibition (SMMC-7721 [37]): Active
- IC50 (SMMC-7721 [38]): 5.13 µM
- Activity (HepG2 [39]): Active
- Activity (Mus musculus [40]): Non-Toxic
- Activity (SMMC-7721 [41]): Active
- Activity (Mus musculus [42]): Non-Toxic
- IC50 (K562): 4.67 µM
- inhibition in vivo at 0.75 mg/kg/day (H22 [43]): 68.3%
- Activity (SMMC-7721 [44]): inactive
- Activity (Mus musculus [45]): Non-Toxic
- Activity (SMMC-7721 [46]): Dose-dependent effect
- inhibition in vivo at 0.75 mg/kg/day (H22 [47]): 54.4%
- Activity (HepG2 [48]): Dose-dependent effect
- Activity (Mus musculus [49]): Non-Toxic

SMILES: CCNCCCNCCCNCCCN1C(=O)c2cccc3cccc(c23)C1=O
- IC50 (HepG2 [19]): 6.77 µM
- IC50 (HCT-116): 6.73 µM
- IC50 (SMMC-7721 [38]): 7.71 µM
- IC50 (K562): 6.08 µM

SMILES: CCCNCCCCNCCCCNCCCCN1C(=O)c2cccc3cccc(c23)C1=O
- IC50 (HepG2 [19]): 75.3 µM
- IC50 (HCT-116): 20.4 µM
- IC50 (SMMC-7721 [38]): 18.8 µM
- IC50 (K562): 32.4 µM

SMILES: O=C1c2cccc3cccc(c23)C(=O)N1CCCNCCCCNCCCNC1CCCCC1
- IC50 (HepG2 [19]): 25.4 µM
- IC50 (HCT-116): 18.3 µM
- IC50 (SMMC-7721 [38]): 29.9 µM
- IC50 (K562): 17.2 µM

SMILES: CCCNCCCNCCCCNCCCN1C(=O)c2cccc3cccc(c23)C1=O
- IC50 (HepG2 [19]): 7.66 µM
- IC50 (HCT-116): 5.2 µM
- IC50 (SMMC-7721 [38]): 6.6 µM
- IC50 (K562): 7.71 µM
